# Test results from ChEMBL document CHEMBL1671851, “Population pharmacokinetics of rifampin in pulmonary tuberculosis patients, including a semimechanistic model to describe variable absorption” (Antimicrob Agents Chemother, 2008).
# Columns and labels:
# Homo sapiens [1] = organism: Homo sapiens; test: Absorption rate constant in pulmonary tuberculosis patient in first order model; format: ADME, organism-based; details: in vivo
# [2] = Apparent oral clearance in pulmonary tuberculosis patient in first order and lag time model; format: ADME, organism-based; details: human, in vivo
# [3] = Apparent volume of distribution in pulmonary tuberculosis patient in first order and lag time model; format: ADME, organism-based; details: human, in vivo; read-out: Vz
# Homo sapiens [4] = organism: Homo sapiens; test: Absorption rate constant in pulmonary tuberculosis patient in first order and lag time model; format: ADME, organism-based; details: in vivo
# [5] = Apparent oral clearance in pulmonary tuberculosis patient in Sequential 0 order and first order model; format: ADME, organism-based; details: human, in vivo
# [6] = Apparent volume of distribution in pulmonary tuberculosis patient in Sequential 0 order and first order model; format: ADME, organism-based; details: human, in vivo; read-out: Vz
# Homo sapiens [7] = test: AUC (0 to 12 hrs) in kenyan pulmonary tuberculosis patient coinjected with HIV with body weight >45 kg at 600 mg/day, po; format: ADME, organism-based, Plasma; parameters: time < 12 hr, dose 600 mg/day, route oral; details: in vivo
# Homo sapiens [8] = organism: Homo sapiens; test: Absorption rate constant in pulmonary tuberculosis patient in Sequential 0 order and first order model; format: ADME, organism-based; details: in vivo
# [9] = Apparent oral clearance in pulmonary tuberculosis patient in transit compartment model; format: ADME, organism-based; details: human, in vivo
# [10] = Apparent volume of distribution in pulmonary tuberculosis patient in transit compartment model; format: ADME, organism-based; details: human, in vivo; read-out: Vz
# Homo sapiens [11] = organism: Homo sapiens; test: Mean transient time in pulmonary tuberculosis patient in transit compartment model; format: ADME, organism-based; details: in vivo
# Homo sapiens [12] = organism: Homo sapiens; test: Absorption rate constant in pulmonary tuberculosis patient in transit compartment model; format: ADME, organism-based; details: in vivo
# Homo sapiens [13] = test: AUC (0 to 24 hrs) in south african pulmonary tuberculosis patient with body weight <=50 kg at 450 mg/day, po; format: ADME, organism-based, Plasma; parameters: time < 24 hr, dose 450 mg/day, route oral; details: in vivo
# Homo sapiens [14] = test: AUC (0 to 24 hrs) in south african pulmonary tuberculosis patient with body weight >50 kg at 600 mg/day, po; format: ADME, organism-based, Plasma; parameters: time < 24 hr, dose 600 mg/day, route oral; details: in vivo
# Homo sapiens [15] = test: AUC (0 to 12 hrs) in kenyan pulmonary tuberculosis patient with body weight <=45 kg at 450 mg/day, po; format: ADME, organism-based, Plasma; parameters: time < 12 hr, dose 450 mg/day, route oral; details: in vivo
# Homo sapiens [16] = test: AUC (0 to 12 hrs) in kenyan pulmonary tuberculosis patient with body weight >45 kg at 600 mg/day, po; format: ADME, organism-based, Plasma; parameters: dose 600 mg/day, time < 12 hr, route oral; details: in vivo
# Homo sapiens [17] = test: AUC (0 to 12 hrs) in kenyan pulmonary tuberculosis patient coinjected with HIV with body weight <=45 kg at 450 mg/day, po; format: ADME, organism-based, Plasma; parameters: time < 12 hr, dose 450 mg/day, route oral; details: in vivo
# Homo sapiens [18] = test: AUC (0 to infinity) in indian pulmonary tuberculosis patient at 450 mg/day, po; format: ADME, organism-based, Plasma; parameters: dose 450 mg/day, route oral, time infinity; details: in vivo
# Homo sapiens [19] = test: AUC (0 to infinity) in indian pulmonary tuberculosis patient coinjected with HIV at 450 mg/day, po; format: ADME, organism-based, Plasma; parameters: dose 450 mg/day, time infinity, route oral; details: in vivo
# Homo sapiens [20] = test: AUC (0 to 10 hrs) in north american pulmonary tuberculosis patient coinjected with HIV with body weight <=50 kg at 450 mg/day, po; format: ADME, organism-based, Plasma; parameters: time < 10 hr, dose 450 mg/day, route oral; details: in vivo
# Homo sapiens [21] = test: AUC (0 to 10 hrs) in north american pulmonary tuberculosis patient coinjected with HIV with body weight >50 kg at 600 mg/day, po; format: ADME, organism-based, Plasma; parameters: time < 10 hr, dose 600 mg/day, route oral; details: in vivo
# Homo sapiens [22] = test: AUC (0 to 12 hrs) in german pulmonary tuberculosis patient at 600 mg/day, po; format: ADME, organism-based, Plasma; parameters: dose 600 mg/day, time < 12 hr, route oral; details: in vivo
# Homo sapiens [23] = test: AUC (0 to 24 hrs) in indonesian pulmonary tuberculosis patient at 450 mg/day, po; format: ADME, organism-based, Plasma; parameters: dose 450 mg/day, time < 24 hr, route oral; details: in vivo
# Homo sapiens [24] = test: AUC (0 to 24 hrs) in indonesian pulmonary tuberculosis patient at 600 mg/day, po; format: ADME, organism-based, Plasma; parameters: time < 24 hr, dose 600 mg/day, route oral; details: in vivo
# [25] = Apparent oral clearance in pulmonary tuberculosis patient in first order model; format: ADME, organism-based; details: human, in vivo
# [26] = Apparent volume of distribution in pulmonary tuberculosis patient in first order model; format: ADME, organism-based; details: human, in vivo; read-out: Vz
smiles,measurement,setting,value
CO[C@H]1/C=C/O[C@@]2(C)Oc3c(C)c(O)c4c(O)c(c(/C=N/N5CCN(C)CC5)c(O)c4c3C2=O)NC(=O)/C(C)=C\C=C\[C@H](C)[C@H](O)[C@@H](C)[C@@H](O)[C@@H](C)[C@H](OC(C)=O)[C@@H]1C [RIFAMPIN],Ka,Homo sapiens [1],1.61 L/h
same,CL/F,[2],337 mL/min
same,Vd,[3],53.4 L
same,Ka,Homo sapiens [4],1.64 L/h
same,CL/F,[5],320 mL/min
same,Vd,[6],51.5 L
same,AUC,Homo sapiens [7],19600 ng·h/mL
same,Ka,Homo sapiens [8],1.23 L/h
same,CL/F,[9],320 mL/min
same,Vd,[10],53.2 L
same,MTT,Homo sapiens [11],0.424 h
same,Ka,Homo sapiens [12],1.15 L/h
same,AUC,Homo sapiens [13],30700 ng·h/mL
same,AUC,Homo sapiens [14],30700 ng·h/mL
same,AUC,Homo sapiens [15],23100 ng·h/mL
same,AUC,Homo sapiens [16],23100 ng·h/mL
same,AUC,Homo sapiens [17],19600 ng·h/mL
same,AUC,Homo sapiens [18],44600 ng·h/mL
same,AUC,Homo sapiens [19],28200 ng·h/mL
same,AUC,Homo sapiens [20],30100 ng·h/mL
same,AUC,Homo sapiens [21],30100 ng·h/mL
same,AUC,Homo sapiens [22],60300 ng·h/mL
same,AUC,Homo sapiens [23],48500 ng·h/mL
same,AUC,Homo sapiens [24],79700 ng·h/mL
same,CL/F,[25],323 mL/min
same,Vd,[26],52.8 L
